Reference: patent US10857105B2, “Compounds and compositions for intracellular delivery of therapeutic agents” (ModernaTX, Inc., priority 2017, dated 2020)

What was measured:
[1] = Particle size and polydispersity index of nanoparticle compositions (Zetasizer Nano ZS); format: physicochemical
Protocol: A Zetasizer Nano ZS (Malvern Instruments Ltd, Malvern, Worcestershire, UK) can be used to determine the particle size, the polydispersity index (PDI) and the zeta potential of the nanoparticle compositions in 1×PBS in determining particle size and 15 mM PBS in determining zeta potential.
(§1) Initial studies were performed to compare the delivery efficiency of nanoparticle compositions including various compounds according to Formula (I), (IA), (IB), (II), (IIa), (IIb), (IIc), (IId), (IIe), (IIf), (IIg), or (III). The cationic lipid MC3 is a current standard in the art. Accordingly, the standard MC3 formulation including about 50 mol % MC3, about 10 mol % DSPC, about 38.5 mol % cholesterol, and about 1.5 mol % PEG-DMG was used as a basis for this study. Nanoparticle compositions including DSPC as a phospholipid, cholesterol as a structural lipid, PEG-DMG as a PEG lipid, an RNA, and a compound according to Formula (I), (IA), (IB), (II), (IIa), (IIb), (IIc), (IId), (IIe), (IIf), (IIg), or (III) selected from Compounds 1-159, 168-170, and 173-175 were prepared according to or via methods similar to those described in Examples 1 and 2. The ratios of the lipids were 50:10:38.5:1.5 mol % for the lipid according to Formula (I), (IA), (IB), (II), (IIa), (IIb), (IIc), (IId), (IIe), (IIf), (IIg), or (III):DSPC:cholesterol:PEG-DMG. The RNA used was an mRNA encoding luciferase (Luc) or hEPO, wherein each uridine was replaced N1-methyl pseudouridine. Tables 1A-1E summarize the content and characteristics of the formulations.

luciferase (Luc) mRNA = assay: Luciferase expression (whole body bioluminescence) after intravenous administration to mice; format: in vivo
Protocol: In order to monitor how effectively various nanoparticle compositions deliver therapeutic and/or prophylactics to targeted cells, different nanparticle compositions including a particular therapeutic and/or prophylactic (for example, a modified or naturally occurring RNA such as an mRNA) are prepared and administered to rodent populations. Mice are intravenously, intramuscularly, intraarterially, or intratumorally administered a single dose including a nanoparticle composition with a formulation such as those provided in Example 3. In some instances, mice may be made to inhale doses. Dose sizes may range from 0.001 mg/kg to 10 mg/kg, where 10 mg/kg describes a dose including 10 mg of a therapeutic and/or, prophylactic in a nanoparticle composition for each 1 kg of body mass of the mouse. A control composition including PBS may also be employed.
Upon administration of nanoparticle compositions to mice, dose delivery profiles, dose responses, and toxicity of particular formulations and doses thereof can be measured by enzyme-linked immunosorbent assays (ELISA), bioluminescent imaging, or other methods. For nanoparticle compositions including mRNA, time courses of protein expression can also be evaluated. Samples collected from the rodents for evaluation may include blood, sera, and tissue (for example, muscle tissue from the site of an intramuscular injection and internal tissue); sample collection may involve sacrifice of the animals.
The efficacy of the nanoparticle compositions presented in Table 1A was evaluated with a bioluminescence study. Formulations were administered intravenously to mice (n=6) at a dosage of 0.5 mg/kg (mpk) and bioluminescence measured at 3, 6, and 24 hour time points. The standard MC3 formulation and, in some instances, a control (e.g., a PBS control) were evaluated for comparison. […] In general, flux decreased as time progressed to less than 10% of the initial flux.
The total flux (measured by area under the curve, AUC) induced by administration of a formulation including a given lipid relative to that induced by administration of a formulation including MC3 was also measured for several lipids.

modified luciferase = assay: Luciferase expression in liver, lung, spleen and femur 6 hours after intravenous administration to mice; format: in vivo; details: 6 hours after intravenous 0.5 mpk, mice
Protocol: The efficacy of the nanoparticle compositions presented in Table 1A was further evaluated by measuring the expression of modified luciferase in the liver, lung, spleen, and femur upon administration of a given composition. Formulations were administered intravenously to mice (n=3) at a dosage of 0.5 mpk and bioluminescence measured after 6 hours. The standard MC3 formulation and a PBS control were also tested. […] Flux in the liver was lowest for compositions including Compounds 58, 59, 137, and 141. Flux in the spleen was highest for compositions including Compounds 4, 7, 33, 34, 48, 53, 108, 129, 130, and 148, and lowest for compositions including Compounds 9, 59, 124, and 141.

[2] = Encapsulation efficiency of RNA in nanoparticle compositions (RIBOGREEN assay); format: physicochemical; details: Table 1A; lipid:DSPC:cholesterol:PEG-DMG 50:10:38.5:1.5 mol %
Protocol: For nanoparticle compositions including an RNA, a QUANT-IT™ RIBOGREEN® RNA assay (Invitrogen Corporation Carlsbad, Calif.) can be used to evaluate the encapsulation of an RNA by the nanoparticle composition. The samples are diluted to a concentration of approximately 5 μg/mL, in a TE buffer solution (10 mM Tris-HCl, 1 mM EDTA, pH 7.5). 50 μL of the diluted samples are transferred to a polystyrene 96 well plate and either 50 μL of TE buffer or 50 μL of a 2% Triton X-100 solution is added to the wells. The plate is incubated at a temperature of 37° C. for 15 minutes. The RIBOGREEN® reagent is diluted 1:100 in TE buffer, and 100 μL of this solution is added to each well. The fluorescence intensity can be measured using a fluorescence plate reader (Wallac Victor 1420 Multilabel Counter; Perkin Elmer, Waltham, Mass.) at an excitation wavelength of, for example, about 480 nm and an emission wavelength of, for example, about 520 nm. The fluorescence values of the reagent blank are subtracted from that of each of the samples and the percentage of free RNA is determined by dividing the fluorescence intensity of the intact sample (without addition of Triton X-100) by the fluorescence value of the disrupted sample (caused by the addition of Triton X-100).
as §1

[3] = Table 1A, lipid:DSPC:cholesterol:PEG-DMG 50:10:38.5:1.5 mol %
[4] = intravenous administration (Table 3D)

| Size [1, 3] | Size ([1]; Table 1C, compositions for subcutaneous administration) | EE [2] | SMILES | Novel lipid/MC3 ratio, i.v. (luciferase (Luc) mRNA; Table 3G, intravenous, luciferase, 6 hr. timepoint, relative to MC3) | Novel lipid/MC3 expression ratio, i.v. (luciferase (Luc) mRNA; intravenous, luciferase, 6 hr. time point, relative to MC3 formulation) | Total Flux, Liver (modified luciferase) | Total Flux, Lung (modified luciferase) | Total Flux, Spleen (modified luciferase) | AUC (luciferase (Luc) mRNA; i.v. administration (Table 3C)) | AUC (luciferase (Luc) mRNA; [4]) |
| --- | --- | --- | --- | --- | --- | --- | --- | --- | --- | --- |
| 86.8 nm | 83.9 nm | – | CCCCCCCCCOC(=O)CCCCCCCN(CCCCCCCC(=O)OC(CCCCCCCC)CCCCCCCC)CCCNC(=S)NC [Compound 113, Heptadecan-9-yl 8-((3-(3-methylthioureido)propyl)(8-(nonyloxy)-8-oxooctyl)amino)octanoate] | 0.59 | 0.59 | 1.11E+09 | 5.55E+06 | 5.22E+07 | – | – |
| – | – | 30.77% | CCCCCCCCOP(=O)(OCCCCCCCC)OCCCCCCCN(CCO)CCCCCCCC(=O)OC(C)CCCCCCCC (stereo not drawn) [Compound 132, Decan-2-yl 8-((7-((bis(octyloxy)phosphoryl)oxy)heptyl)(2-hydroxyethyl)amino)octanoate] | – | – | 1.49E+08 | 1.39E+07 | 3.37E+08 | 1.75E+10 h*p/s | – |
| 62.1 nm | – | – | CCCCCCCCC(CCCCCCCC)OC(=O)CCCCCCCN(C)CCCCCCCCCC(=O)OCCCCCCC [Compound 149, Heptyl 10-((8-(heptadecan-9-yloxy)-8-oxooctyl)(methyl)amino)decanoate] | – | – | 1.11E+09 | 2.69E+06 | 2.71E+07 | – | 1.057E+011 p/s*h |
| 83.7 nm | – | – | CCCCCCCCCOC(=O)CCCCCCCN(CCO)CCCCCCCCCC(CCCCCCCC)CCCCCCCC [Compound 153, Nonyl 8-((2-hydroxyethyl)(10-octyloctadecyl)amino)octanoate] | – | – | 1.18E+09 | 6.42E+06 | 1.42E+08 | – | 2.697E+011 p/s*h |
| 75.9 nm | – | – | CCCCCCCCCOC(=O)CCCCCCCN(CCO)CCN(CCO)CCCCCCCC(=O)OC(CCCCCCCC)CCCCCCCC [Compound 159, Heptadecan-9-yl 8-((2-hydroxyethyl)(2-((2-hydroxyethyl)(8-(nonyloxy)-8-oxooctyl)amino)ethyl)amino)octanoate] | – | – | 1.13E+06 | 2.17E+05 | 7.24E+05 | – | 1.355E+008 p/s*h |
| 91.7 nm | – | – | CCCCCCCCCOC(=O)CCCCCCCN(CCCCCCCC(=O)OC(CCCCCCCC)CCCCCCCC)CCN1CCN(C)CC1 [Compound 101, Heptadecan-9-yl 8-((2-(4-methylpiperazin-1-yl)ethyl)(8-(nonyloxy)-8-oxooctyl)amino)octanoate] | – | – | 1.27E+07 | 1.77E+05 | 5.60E+06 | 1.8E+09 h*p/s | – |
| 76.7 nm | – | – | CCCCCCCCC(CCCCCCCC)OC(=O)CCCCCCCN(CCO)CCCCCCCC(=O)OC1CCC(CCCCC)CC1 (stereo not drawn) [Compound 66, Heptadecan-9-yl 8-((2-hydroxyethyl)(8-oxo-8-((4-pentylcyclohexyl)oxy)octyl)amino)octanoate] | – | – | 5.01E+09 | 4.20E+06 | 2.00E+07 | 6.76E+11 h*p/s | – |
| 59.2 nm | – | 95.7% | CCCCCCCCC(CCCCCCCC)OC(=O)CCCCCCCN(CCO)CCCC(=O)OC(CCCCCC)CCCCCCCC (stereo not drawn) [Compound 73, Heptadecan-9-yl 8-((2-hydroxyethyl)(4-oxo-4-(pentadecan-7-yloxy)butyl)amino)octanoate] | – | – | 7.93E+08 | 6.17E+06 | 9.45E+06 | – | – |
| 80.6 nm | – | 96.40% | CCCCCCCCC(CCCCCCCC)OC(=O)CCCCCCCN(CCO)CCCCCCCCC1CC1CCCCCCCC (stereo not drawn) [Compound 47, heptadecan-9-yl 8-((2-hydroxyethyl)(8-(2-octylyclopropyl)octyl)amino)octanoate] | – | – | 4.86E+09 | 8.71E+06 | 8.33E+07 | – | – |
| 62.6 nm | – | – | CCCCCCCCCOC(=O)CCCCCCCN(CCO)CCCCCCC/C=C\C(CCCCCCCC)CCCCCCCC [Compound 152, Nonyl (Z)-8-((2-hydroxyethyl)(10-octyloctadec-8-en-1-yl)amino)octanoate] | – | – | 1.43E+08 | 3.16E+05 | 6.63E+06 | – | 2.855E+010 p/s*h |
| 125.4 nm | – | 95.8% | CCCCCCCCC(CCCCCCCC)OC(=O)CCCCCCCN(CCO)CCCC(=O)OCCCCCC [Compound 53, heptadecan-9-yl 8-((4-(hexyloxy)-4-oxobutyl)(2-hydroxyethyl)amino) octanoate] | – | – | 2.02E+09 | 2.47E+07 | 8.54E+08 | – | – |
| 105.6 nm | – | 94.87% | CCCCCCCCCOC(=O)CCCCCCCN(CCO)CCCCCCCC(=O)OC(CCCCCC)CCCCCCCC (stereo not drawn) [Compound 32, nonyl 8-((2-hydroxyethyl)(8-oxo-8-(pentadecan-7-yloxy)octyl)amino) octanoate] | – | – | 8.52E+09 | 1.16E+07 | 1.70E+08 | – | – |
| 110.4 nm | – | 89.5% | CCCCCCCCCOC(=O)CCCCCCCN(CCO)CCCCCCCCCOP(=O)(OCCCCCCCCC)OCCCCCCCCC [Compound 127, Nonyl 8-((9-((bis(nonyloxy)phosphoryl)oxy)nonyl)(2-hydroxyethyl)amino)octanoate] | – | – | 1.94E+08 | 5.26E+06 | 3.21E+08 | – | – |
| 73.9 nm | – | 95.11% | CCCCCCCC/C=C\CCCCCCCCN(CCO)CCCCCCCC(=O)OC(CCCCCCCC)CCCCCCCC [Compound 31, heptadecan-9-yl (Z)-8-((2-hydroxyethyl)(octadec-9-en-1-yl)amino) octanoate] | – | – | 5.17E+09 | 7.55E+06 | 9.42E+07 | – | – |
